The results in this text go back to patent publication US20260258009A1, “3-[(BENZO[D][1,3]DIOXOLANE-4-YL)OXY]PROPYLAMINE HYDROCHLORIDE, OPTICAL ISOMER AND CRYSTAL THEREOF, AND PREPARATION METHOD THEREFOR” (priority 2022, published 2026).

Where a name gives a salt, the structure may show the parent alone. Read-outs that look alike come from different tables or passages of the source.

Series [1] is described as follows: Experiments of influencing factors (crystal form stability, XRPD). The format is physicochemical. To be noted: hydrochloride; for Crystal form after High temperature of 60° C. / Crystal form after Illumination of 5000 1x / Crystal form after High humidity of 92.5%: XRPD; for Crystal form stability (experimental conclusion): high temperature, high humidity, illumination, condition stated in the value; for Crystal form after Illumination of 5000 1x: photostability tester 5000 lx; for Crystal form after High humidity of 92.5%: relative humidity 92.5%. Here is the method:
High temperature experiment: About 1 g of the A, B, and C crystal forms were respectively weighed, placed in a clean watch glass, and placed at 60° C. for 10 days. The samples were taken on day 0, day 5, day 10, and day 30 for XRPD analysis.
High humidity experiment: About 1 g of the A, B, and C crystal form samples were respectively weighed, placed in a clean watch glass, and placed at a relative humidity of 92.5% for 10 days. The samples were taken on day 0, day 5, day 10, and day 30 for XRPD analysis.
Illumination experiment: About 1 g of the A, B, and C crystal form samples were respectively weighed, placed in a clean watch glass, laid flat, and placed in a photostability tester (the illumination was 5000 lx) for 10 days. The samples were taken on day 0, day 5, day 10, and day 30 for XRPD analysis.

Series [2] can be described thus: Solubility experiment (HPLC, external standard method). To be noted: thermodynamic from solid, Water, 20° C., overnight oscillation, read-out: Solubility. The class given is physicochemical. How it is done:
The concentrated solution was placed in a 20° C. water bath thermostatic oscillator for overnight oscillation (supersaturation) and filtered. The filtrate was taken, 1 mL of which was precisely measured and placed in a 100 mL volumetric flask. A diluent (water) was added, the mixture was diluted to volume and mixed well, 1 mL of which was precisely measured and placed in a 10 mL volumetric flask. A diluent was added, the mixture was diluted to volume and mixed well as a test sample solution.
Control substance solution: A proper amount of 5 samples were respectively taken, precisely measured, dissolved in a proper amount of a diluent by ultrasonication, and diluted to give a solution containing about 0.1 mg of the sample per 1 mL. Two duplicate samples were prepared for each batch.
• (1) Preparation of buffer: About 2.6428 g ammonium sulfate was weighed and dissolved in 1000 mL of water. 2 mL of triethylamine was added, and the pH value was adjusted to 4.0 with dilute sulfuric acid. • (2) Preparation of mobile phase: Methanol-0.02 mol/L ammonium sulfate solution (2 mL triethylamine was added per 1000 mL, and the pH value was adjusted to 4.0 with dilute sulfuric acid) (45:55). 1000 mL was prepared, mixed well, filtered, and used after ultrasonic treatment.
Detection wavelength: 230 nm; flow rate: 1.0 mL/min; column temperature: 35° C.; sample injection volume: 20 μL; chromatographic column: Agilent Eclipse XDB-C18 chromatographic column (4.6×150 mm, 5 μm); mobile phase: methanol-0.02 mol/L ammonium sulfate solution (2 mL triethylamine was added per 1000 mL, and the pH value was adjusted to 4.0 with dilute sulfuric acid) (45:55).
20 μL of each solution was precisely measured, and injected separately into a liquid chromatograph. The chromatograms were recorded, and the solubility of the compounds was determined according to an external standard method.

Series [3] in a line: Pharmacokinetic assay in beagle dogs. To be noted: both, dog, in vivo, mean; for half-life: t1/2, beagle dogs.
Description: Each group had six beagle dogs, half male and half female.
Preparation of solutions: • 1) Intravenous injection administration: 0.9% Normal saline was used as a vehicle. • 2) Oral administration: According to the dose of 10 mg/kg (based on base), a corresponding mass of the drug was weighed according to the actual weight of the animal, and then filled into a capsule to be administered to the animal.
The test system of a further series is ICR mice. Put plainly: Mouse forced swimming test. The class given is in vivo. Particulars: for Immobility time: mice, 1 h after administration, mean±SD, n=12. Here is the method: SPF grade ICR mice were taken. The animals were grouped by weight, 12 animals per group, and the animals were allowed to acclimate for at least 3 days before behavioural test.
The behavioural test was started 1 h after intragastric administration. The mice were placed in a transparent glass cylinder with water (water depth: 15 cm, water temperature: 23-25° C.) and video recorded for 6 min (the background was an LED light panel). At the end of the time, the mice were removed from the water and the next batch of mice was subjected to the behavioural test. Water was changed after every 3 batches of tests. After the test, the video of the behavioural test was derived and the cumulative immobility time of the mice 4 min after the 6 min forced swimming period was analyzed using the Forced Swim Scant 2.0 software.
The test results are expressed as mean±SD. Comparisons between each group and the vehicle group were conducted using the t-test. The differences were considered statistically significant when. P<0.05.

The mark [4] stands for this setting: po, 1 mg/kg, beagle dogs, oral (capsule).

`CNCC[C@@H](Oc1cccc2c1OCO2)c1ccccc1.Cl` [B crystal form, (R)—N-methyl-3-phenyl-3-[(benzo[d][1,3]dioxolan-4-yl)oxy]propylamine hydrochloride]: in series [1] (5 days), the “Crystal form after High temperature of 60° C.” value (shortened to “Crystal form … of 60° C.”) is on record as “Crystal form A + B”, the “Crystal form after Illumination of 5000 1x” value (from here on “Crystal form … of 5000 1x”) is listed as “Crystal form B” and the “Crystal form after High humidity of 92.5%” value (from here on “Crystal form … of 92.5%”) is “Crystal form A + B”. Further, in series [1] (10 days), the “Crystal form … of 60° C.” value is recorded as “Crystal form A + B”, the “Crystal form … of 5000 1x” value was “Crystal form B” and the “Crystal form … of 92.5%” value was “Crystal form A + B”. Moreover, in series [1] (30 days), the “Crystal form … of 60° C.” value was “Crystal form A + B”, the “Crystal form … of 5000 1x” value is given as “Crystal form B” and the “Crystal form … of 92.5%” value is given as “Crystal form A + B”. Further, in series [1], the “Crystal form stability (experimental conclusion)” value is “converted into a mixed crystal of the crystal forms A and B under the high temperature and high humidity environment”.

Turning to `CNCC[C@@H](Oc1cccc2c1OCO2)c1ccccc1.Cl` [C crystal form, (R)—N-methyl-3-phenyl-3-[(benzo[d][1,3]dioxolan-4-yl)oxy]propylamine hydrochloride], in series [1] (5 days), the “Crystal form … of 60° C.” value was “Crystal form C”, the “Crystal form … of 5000 1x” value was “Crystal form C” and the “Crystal form … of 92.5%” value is on record as “Crystal form A”. Moreover, in series [1] (10 days), the “Crystal form … of 60° C.” value is “Crystal form C”, the “Crystal form … of 5000 1x” value is “Crystal form C” and the “Crystal form … of 92.5%” value is on record as “Crystal form A”. Further, in series [1] (30 days), the “Crystal form … of 60° C.” value is listed as “Crystal form C”, the “Crystal form … of 5000 1x” value is on record as “Crystal form C” and the “Crystal form … of 92.5%” value is reported as “Crystal form A”. The “Crystal form stability (experimental conclusion)” value in series [1] is “converted into the A crystal form under the high humidity environment”.

For `CNCCC(Oc1cccc2c1OCO2)c1ccccc1.O=C(O)C(=O)O` (stereo not shown) [N-methyl-3-phenyl-3-[(benzo[d][1,3]dioxolan-4-yl)oxy]propylamine oxalate], in series [2] (water, 20 °C, water), the solubility is 6900 µg/mL. In series [3] (iv, 0.3 mg/kg, beagle dogs), the AUC(0-t) was 109 ng·h/mL, the AUC(0-inf) was determined as 110 ng·h/mL, the concentration peaked (Cmax) at 71.6 ng/mL and the Tmax is 0.08 h. Moreover, in series [3] (iv, 0.3 mg/kg), the half-life is 1.93 h. Besides, in series [3] (setting [4]), the AUC(0-t) was determined as 78.7 ng·h/mL, the AUC(0-inf) amounted to 79.9 ng·h/mL, the highest concentration (Cmax) turned out to be 23.7 ng/mL and the Tmax stood at 1.43 h. The same compound showed a bioavailability in series [3] (po, 1 mg/kg, Bioavailability, beagle dogs, oral 1 mg/kg vs intravenous 0.3 mg/kg) of 21.8%. Moreover, in series [3] (po, 1 mg/kg, oral (capsule)), the half-life is 1.98 h.

Regarding `CNCC[C@H](Oc1cccc2ccccc12)c1cccs1` [Duloxetine hydrochloride, reference compound], in the series on ICR mice (Mus musculus, po, read-out: ED50 (median effective dose, FST-ED50)), the ED50 is 6.93 mg/kg. The Immobility time was determined as 135.1 ± 49.2 s in the series on ICR mice (intragastric, 1.25 mg/kg); 154.9 ± 76.0 s in the series with ICR mice (intragastric, 2.5 mg/kg); 104.9 ± 51.5 s in the series on ICR mice (intragastric, 5 mg/kg); 29.9 ± 45.4 s in the series with ICR mice (intragastric, 20 mg/kg); 10.6 ± 17.3 s with ICR mice (intragastric, 40 mg/kg). Further, the “minimum effective dose (MED)” value in the series on ICR mice (mouse forced swimming, intragastric) came out at 5 mg/kg.

With `CNCC[C@@H](Oc1cccc2c1OCO2)c1ccccc1.O=C(O)C(=O)O` [(R)—N-methyl-3-phenyl-3-[(benzo[d][1,3]dioxolan-4-yl)oxy]propylamine oxalate, reference compound], in series [2], the solubility was found to be 5100 µg/mL.
